Results reported in patent publication EP4696708A1, “PEPTIDE TYROSINE-TYROSINE ANALOG AND USE THEREOF” (The United Bio-Technology (Hengqin) Co., Ltd., priority 2023, dated 2024).
*1 amine or outer side, *2 acyl side, *3 side chain or, on linkers, in order; H or OH if unused. Where a SMILES comes first, the peptide text is derived from it. Side-chain parts run from the residue outwards. [ ]: non-standard residue; d: D form. The star is where a group is joined. C18 diacid = O=C(O)CCCCCCCCCCCCCCCCC(=O)*; γGlu = O=C(O)[C@H](CCC(=O)[*:2])N[*:1]; AEEA = NCCOCCOCC(=O)O; Aib = CC(C)(N)C(=O)O

Tests used:
hNPY1R = target: T1, hNPY1R (Homo sapiens, UniProt P25929); test: calcium flux assay (FLIPR), in vitro functional activity on human NPY1 receptor; assay type: cell-based; details: initial concentration 1 µM, average of at least 3 independent tests
T1 sequence (P25929 1-384): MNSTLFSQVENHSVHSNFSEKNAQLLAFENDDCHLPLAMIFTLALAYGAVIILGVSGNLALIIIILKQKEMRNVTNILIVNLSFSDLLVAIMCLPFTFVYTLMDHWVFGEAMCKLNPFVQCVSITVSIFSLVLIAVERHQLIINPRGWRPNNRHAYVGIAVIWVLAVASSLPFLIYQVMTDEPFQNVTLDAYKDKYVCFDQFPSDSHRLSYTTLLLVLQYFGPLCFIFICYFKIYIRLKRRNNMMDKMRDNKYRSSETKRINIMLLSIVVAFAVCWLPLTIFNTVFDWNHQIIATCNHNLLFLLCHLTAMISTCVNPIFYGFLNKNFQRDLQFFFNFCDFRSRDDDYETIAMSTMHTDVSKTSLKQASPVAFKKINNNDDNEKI
Description: • 1) Preparation of test analogue and positive reference agonist: the test analogue was diluted 4-fold to 10 concentrations using Bravo, transferred 900 nL to the analogue plate using Echo, and then added with 30 µL of detection buffer (20 mM HEPES, 1×HBSS, 0.1% casein) to each well. The initial concentration of the test analogue and the positive reference agonist were 1 µM. • 2) The cell plate was removed from the incubator (cell Y1 needs to be removed of the culture medium and added with 20 µL of detection buffer, otherwise they will all be a high signal; it is not necessary for Y5), added with 2*Fluo-4 detection reagent, 20 µL per well, incubated in a 37°C incubator for 50 minutes, and then left to stand at room temperature for 10 minutes. • 3) The cell plate, the analogue plate, and the pipette tip were placed into the FLIPR instrument, the instrument was started, and 10 µL of analogue was transferred from the analogue plate to the cell plate. […] Using the logarithm of the concentration of analogues as the horizontal axis and the activation rate of calcium ion fluorescence signal as the vertical axis, the "Nonlinear regression (curve fit)-log (antigen) vs. response Variable slope" model in GraphPad Prism 5.0 was used for fitting to calculate the EC50 of the sample.

[1] = target: T2, recombinant human NPY2 receptor (Homo sapiens, UniProt P49146); test: cAMP assay, in vitro functional activity on NPY2 receptors (inhibition of Forskolin-induced cAMP production); assay type: cell-based; details: HEK 293 cells overexpressing recombinant human NPY2 receptor; average of at least 3 independent tests; read-out: hNPY2R EC50
T2 construct: expressed in transfected cells; host or cells: HEK 293
T2 sequence (P49146 1-381): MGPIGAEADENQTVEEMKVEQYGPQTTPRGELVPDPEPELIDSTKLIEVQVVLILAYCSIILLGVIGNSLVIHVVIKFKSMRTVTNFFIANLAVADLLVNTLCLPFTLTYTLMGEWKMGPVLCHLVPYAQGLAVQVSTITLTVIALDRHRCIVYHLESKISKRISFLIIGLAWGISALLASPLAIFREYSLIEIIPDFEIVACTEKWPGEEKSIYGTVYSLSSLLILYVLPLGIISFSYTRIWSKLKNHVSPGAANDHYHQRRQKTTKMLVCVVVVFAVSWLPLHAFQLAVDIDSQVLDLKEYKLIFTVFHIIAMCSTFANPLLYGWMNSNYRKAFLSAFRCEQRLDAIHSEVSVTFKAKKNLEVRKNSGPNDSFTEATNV
Description: After addition, they were centrifuged at 1000 rpm for 1 minute. • 5) 5 µL of 2 µM Forskolin (prepared with detection buffer) was added to a 384-well cell reaction plate using Multidrop Combi and centrifuged at 1000 rpm for 1 minute. 5 µL of detection buffer containing cells was added to a 384-well reaction plate, ensuring a cell count of 3000 cells per well. […] It was covered with a lid and incubated at room temperature in the dark for 1 hour. • 7) After incubation for 1 hour, it was placed in an EnVision microplate reader for measurement.

[2] = plasma pharmacokinetics in SD rats (LC-MS/MS); assay type: in vivo; details: rat, sc, male rats, single subcutaneous 0.492 mg/kg
Description: (§1) Blood samples were collected from each animal at each time point after administration, and the blood samples were centrifuged at around 4°C, 3200 g, for 10 minutes. Plasma was collected separately, transferred to pre-labeled 96-well plates or polypropylene tubes, speedily frozen on dry ice, and stored at -60°C or lower until LC-MS/MS analysis.
(§2) LC-MS/MS method was adopted to determine the concentration of the measured analogues in blood samples. The data on the changes in plasma concentration over time were plotted into a chart and analyzed using non partitioned methods with Phoenix WinNonlin 6.3 software program. Relevant PK parameters were calculated based on the administration routes.
The plasma pharmacokinetics of PYY analogues in male SD rats were evaluated after a single subcutaneous administration of 0.492 mg/kg Analogue 3. Blood samples were collected from 3 rats at each time point after administration for 0.5h, 1h, 2h, 4h, 8h, 12h, 16h, 24h, 48h, 72h, 96h, 120h, 144h, 168h, extending to 168h. Due to the use of discontinuous sampling to evaluate the kinetics of PYY analogues in rats, the pharmacokinetic parameters of Analogue 3 after a single subcutaneous administration of 0.492 mg/kg were listed using average concentration-time data.

[3] = plasma pharmacokinetics in crab-eating macaques (LC-MS/MS); assay type: in vivo; details: monkey, sc, male crab-eating macaques, single subcutaneous 0.246 mg/kg
Description: as §1, §2
The plasma pharmacokinetics of PYY analogues in male crab-eating macaques were evaluated after a single subcutaneous administration of 0.246 mg/kg Analogue 3. Blood samples were collected from 2 crab-eating macaques at each time point after administration for 1h, 2h, 4h, 8h, 12h, 24h, 48h, 72h, 96h, 120h, 144h, 168h, 192h, 240h, 288h, 336h, 408h, 504h, extending to 504 hours. Due to the use of discontinuous sampling to evaluate the kinetics of PYY analogues in crab-eating macaques, the pharmacokinetic parameters of Analogue 3 after a single subcutaneous administration of 0.246 mg/kg were listed using average concentration-time data.

CC(C)C[C@H](NC(=O)[C@H](Cc1ccc(O)cc1)NC(=O)[C@H](Cc1c[nH]cn1)NC(=O)[C@H](CCCNC(=N)N)NC(=O)[C@H](CC(C)C)NC(=O)[C@H](CO)NC(=O)C(C)(C)NC(=O)[C@H](Cc1ccc(O)cc1)NC(=O)[C@H](Cc1ccc(O)cc1)NC(=O)[C@H](CCCNC(=N)N)NC(=O)[C@H](CCC(N)=O)NC(=O)[C@H](Cc1c[nH]c2ccccc12)NC(=O)[C@H](CCC(=O)O)NC(=O)[C@H](CCC(=O)O)NC(=O)[C@@H]1CCCN1C(=O)[C@H](CO)NC(=O)C(C)(C)NC(=O)[C@H](CC(=O)O)NC(=O)[C@H](CCC(=O)O)NC(=O)[C@H](CCC(=O)O)NC(=O)[C@@H]1CCCN1C(=O)[C@H](CCCCNC(=O)COCCOCCNC(=O)CC[C@H](NC(=O)CCCCCCCCCCCCCCCCC(=O)O)C(=O)O)NC(=O)[C@H](CCC(=O)O)NC(=O)[C@@H]1CCCN1C(=O)[C@H](CCCCN)NC(=O)[C@@H]1CCCN1)C(=O)N[C@@H](CC(N)=O)C(=O)N[C@@H](Cc1c[nH]c2ccccc12)C(=O)N[C@@H](CC(C)C)C(=O)N[C@H](C(=O)N[C@@H](CCCNC(=N)N)C(=O)N[C@@H](CCC(N)=O)C(=O)N[C@@H](CCCNC(=N)N)C(=O)N[C@@H](Cc1ccc(O)cc1)C(N)=O)[C@@H](C)O [Analogue 1] (H-PKPEK([AEEA-γGlu-C18 diacid])PEED[Aib]SPEEWQRYY[Aib]SLRHYLNWLTRQRY-NH2)
EC50 (hNPY1R): > 50 nM

CC(C)C[C@H](NC(=O)[C@H](CCC(=O)O)NC(=O)[C@H](C)NC(=O)[C@H](Cc1ccc(O)cc1)NC(=O)[C@H](Cc1ccc(O)cc1)NC(=O)[C@H](CCCNC(=N)N)NC(=O)[C@H](CCC(N)=O)NC(=O)[C@H](Cc1c[nH]c2ccccc12)NC(=O)[C@H](CCC(=O)O)NC(=O)[C@H](CCC(=O)O)NC(=O)[C@@H]1CCCN1C(=O)[C@H](CO)NC(=O)[C@H](C)NC(=O)[C@H](CC(=O)O)NC(=O)C(C)(C)NC(=O)[C@H](CCC(=O)O)NC(=O)[C@@H]1CCCN1C(=O)[C@H](CCCCNC(=O)COCCOCCNC(=O)CC[C@H](NC(=O)CCCCCCCCCCCCCCCCC(=O)O)C(=O)O)NC(=O)[C@H](CCC(=O)O)NC(=O)[C@@H]1CCCN1C(=O)[C@H](CCCCN)NC(=O)[C@@H]1CCCN1)C(=O)N[C@@H](CCCNC(=N)N)C(=O)N[C@@H](Cc1c[nH]cn1)C(=O)N[C@@H](Cc1ccc(O)cc1)C(=O)N[C@@H](CC(C)C)C(=O)N[C@@H](CC(N)=O)C(=O)N[C@@H](Cc1c[nH]c2ccccc12)C(=O)N[C@@H](CC(C)C)C(=O)N[C@H](C(=O)N[C@@H](CCCNC(=N)N)C(=O)N[C@@H](CCC(N)=O)C(=O)N[C@@H](CCCNC(=N)N)C(=O)N[C@@H](Cc1ccc(O)cc1)C(N)=O)[C@@H](C)O [Analogue 2]
EC50 [1]: 0.037 nM | EC50 (hNPY1R): > 50 nM

CC(C)C[C@H](NC(=O)[C@H](Cc1ccc(O)cc1)NC(=O)[C@H](Cc1c[nH]cn1)NC(=O)[C@H](CCCNC(=N)N)NC(=O)[C@H](CC(C)C)NC(=O)[C@H](CCC(=O)O)NC(=O)C(C)(C)NC(=O)[C@H](Cc1ccc(O)cc1)NC(=O)[C@H](Cc1ccc(O)cc1)NC(=O)[C@H](CCCNC(=N)N)NC(=O)[C@H](CCC(N)=O)NC(=O)[C@H](Cc1c[nH]c2ccccc12)NC(=O)[C@H](CCC(=O)O)NC(=O)[C@H](CCC(=O)O)NC(=O)[C@@H]1CCCN1C(=O)[C@H](CO)NC(=O)[C@H](C)NC(=O)[C@H](CC(=O)O)NC(=O)C(C)(C)NC(=O)[C@H](CCC(=O)O)NC(=O)[C@@H]1CCCN1C(=O)[C@H](CCCCNC(=O)COCCOCCNC(=O)CC[C@H](NC(=O)CCCCCCCCCCCCCCCCC(=O)O)C(=O)O)NC(=O)[C@H](CCC(=O)O)NC(=O)[C@@H]1CCCN1C(=O)[C@H](CCCCN)NC(=O)[C@@H]1CCCN1)C(=O)N[C@@H](CC(N)=O)C(=O)N[C@@H](Cc1c[nH]c2ccccc12)C(=O)N[C@@H](CC(C)C)C(=O)N[C@H](C(=O)N[C@@H](CCCNC(=N)N)C(=O)N[C@@H](CCC(N)=O)C(=O)N[C@@H](CCCNC(=N)N)C(=O)N[C@@H](Cc1ccc(O)cc1)C(N)=O)[C@@H](C)O [Analogue 3]
EC50 [1]: 0.037 nM | EC50 (hNPY1R): > 50 nM | AUC(0-inf) [2]: 79.6 µg·h/mL | Cmax [2]: 1940 ng/mL | Tmax [2]: 13.3 h | half-life [2]: 24.7 h | AUC(0-inf) [3]: 337 µg·h/mL | Cmax [3]: 1780 ng/mL | Tmax [3]: 12 h | half-life [3]: 126 h
